Article PMC12257510, “Structure-Guided Design of a KMT9 Inhibitor Prodrug with Cellular Activity” (Journal of Medicinal Chemistry, 2025)

What was measured:
SW480 cells = assay: Cell proliferation assay (X-Celligence), SW480; format: cell-based; conditions: Xcelligence, vs DMSO
Method: Cell proliferation was determined using the X-Celligence RTCA system (Roche). For real-time recording of SW480, Caco-2 cell proliferation, 5000 cells/well were seeded in 16 well E-plates (Roche). Cells were seeded in the presence of DMSO or compound 8/8-N or transfected with the indicated siRNAs in the presence of Dharmafect (Life Technologies) 24 h before seeding in E-plates. Cell indices were automatically recorded every 15 min. Relative velocities represent the change of the cell index over time. The sequences of the siRNAs (Stealth RNAi siRNAs; Life Technologies) used in the experiments have been previously described.

KMT9a = target: T1, KMT9a (Homo sapiens, UniProt Q9Y5N5); assay: CETSA in HepG2 cells, KMT9; format: cell-based; parameters: prodrug compound 8 can target endogenous KMT9; endogenous in cells; host or cells: HepG2; conditions: vs DMSO
T1 sequence (Q9Y5N5 1-214): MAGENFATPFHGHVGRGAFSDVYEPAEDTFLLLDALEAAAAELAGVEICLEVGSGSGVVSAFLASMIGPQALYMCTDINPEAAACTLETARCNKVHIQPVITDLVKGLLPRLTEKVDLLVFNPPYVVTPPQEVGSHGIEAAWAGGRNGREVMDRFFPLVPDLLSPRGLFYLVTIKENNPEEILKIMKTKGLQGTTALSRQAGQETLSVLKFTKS
T1 sequence (Q9UI30 1-125 partner): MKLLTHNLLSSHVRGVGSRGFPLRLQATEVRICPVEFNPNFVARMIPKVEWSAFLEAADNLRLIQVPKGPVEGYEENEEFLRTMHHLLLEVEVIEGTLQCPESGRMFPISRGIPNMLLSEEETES
Method: For whole cell CETSA, the cells were incubated with 10/15 μM of compound 7b/8/8-N for 18 h. Then, cells were washed with cell culture medium, detached from the surface using trypsin, washed with PBS and the number of cells was determined. Cell concentration was adjusted to 3.6 × 10^7 cells/mL using in PBS with Complete (w/o EDTA, Roche) protease inhibitor. Then, cells were frozen in liquid nitrogen and thawed at 25 °C three times, before being divided in 16 aliquots. Each aliquot was heated to a defined temperature between 40 and 70 °C in a PCR cycler (16 well gradient, 55 °C ± 15). After 3 min incubation, aliquots were snap frozen in liquid nitrogen and thawed at 25 °C. Cell lysates were then centrifuged at 20,000 × g , 4 °C for 20 min. Supernatant were mixed with 5× loading buffer, heated to 70 °C for 5 min and analyzed by Western blotting essentially as previously described. For the CETSA performed with cell lysates, cells were directly harvested and lysed as described above. […]
Figure S5. […] Representative Western blots (D) and quantification (E) showing increased melting temperatures (ΔT m) of endogenous KMT9a upon treatment with compound 8 compared to DMSO. […] Representative Western blots (F) and quantification (G) showing no obvious shifting melting temperatures (ΔT m) of endogenous KMT5A upon treatment with compound 8 compared to DMSO. […]

CCOC(=O)[C@@H](N)CCN(CCCNCCc1ccc(Oc2ccc(Cl)cc2)c(F)c1)C[C@H]1C[C@@H](n2ccc3c(NC)ncnc32)[C@H](O)[C@@H]1O [compound 8, Ethyl (S)-2-amino-4-((3-((4-(4-chlorophenoxy)-3-fluorophenethyl)amino)propyl) (((1R,2R,3S,4R)-2,3-dihydroxy-4-(4-(methylamino)-7H-pyrrolo[2,3-d]pyrimidin-7-yl)cyclopentyl)methyl)amino)butanoate]
Proliferation of SW480 cells (SW480 cells): also found in SW480 tumor cell lines
ΔTm at 15 µM (KMT9a): 8 °C
